# Patent publication US8709506B2, “Synergistic compositions for the treatment of topical viral infections” (Vitro Bio Sarl, priority 2010, dated 2014)
# Key:
# herpes virus = type: cell-based; details: for % cell death after 72 h TCID50 herpes virus infection: protease 0.5 μg/ml, Vero cells, serum free medium, virus control 56.0 ± 2.3
# influenza virus = type: cell-based; details: for % cell death after 72 h TCID50 influenza virus infection: protease 0.5 μg/ml, MDCK cells, serum free medium, virus control 48.21 ± 6.77
Substance,% increase in herpes virus growth compared to controls (herpes virus),% cell death after 72 h TCID50 herpes virus infection (herpes virus) [%],% increase in influenza viral growth compared to virus control (influenza virus),% cell death after 72 h TCID50 influenza virus infection (influenza virus) [%]
"MMP-1: purified human MMP 1 (interstitial and fibroblast collagenase), AnaSpec",+8.43%,66.32 ± 7.11,+63.87%,47.76 ± 7.26
"MMP-3: purified human MMP 3 (stromelysin-1), AnaSpec",+7.57%,64.16 ± 4.29,−8.49%,–
"MMP-7: purified human MMP7 (proenzyme), AnaSpec",+1.96%,57.10 ± 6.68,+50.92%,72.76 ± 5.96
"MMP-10: purified human MMP-10 (stromelysin 2), AnaSpec",+25.82%,70.46 ± 5.41,+8.26%,52.19 ± 7.56
